Values joined by “and” are separate entries in the source; they are usually repeats but may differ in a detail not shown here. Identical values can stand only once.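 Exposure lasted 48 hours, with cells grown in 96-well plates and compounds tested at five concentrations. Abbreviation: GI50, concentration required for 50% inhibition of growth. At the TGI there is no net growth.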
Columns and labels:
Experiment in all cases: DTP human tumour cell line panel, 48 h
A549 NSCLC = system: A549 NSCLC
ACHN renal = system: ACHN renal
HOP-62 NSCLC = system: HOP-62 NSCLC
MDA-MB-231 breast = system: MDA-MB-231 breast
SF-268 CNS = system: SF-268 CNS
SK-MEL-2 melanoma = system: SK-MEL-2 melanoma
SN12C renal = system: SN12C renal
SNB-19 CNS = system: SNB-19 CNS
SR leukemia = system: SR leukemia
SW-620 colon = system: SW-620 colon

SMILES	TGI (A549 NSCLC)	TGI (ACHN renal)	TGI (HOP-62 NSCLC)	TGI (MDA-MB-231 breast)	TGI (SF-268 CNS)	TGI (SK-MEL-2 melanoma)	TGI (SN12C renal)	TGI (SNB-19 CNS)	TGI (SR leukemia)	TGI (SW-620 colon)	GI50 (A549 NSCLC)	GI50 (ACHN renal)	GI50 (HOP-62 NSCLC)	GI50 (MDA-MB-231 breast)	GI50 (SF-268 CNS)	GI50 (SK-MEL-2 melanoma)	GI50 (SN12C renal)	GI50 (SNB-19 CNS)	GI50 (SR leukemia)	GI50 (SW-620 colon)
Cc1cc(N(CC(C)Br)CC(C)Br)ccc1N=Nc1ccccc1C(=O)O (configuration not stated)	19.9 µM	13.5 µM	22.8 µM	32.8 µM	> 38.8 µM	10.2 µM	20 µM	23.5 µM	> 40.7 µM	> 84.1 µM	–	–	–	–	–	–	–	–	–	–
CNC(=O)OCc1c(COC(=O)NC)c(-c2ccc(-c3ccccc3)cc2)n(C)c1C	14.1 µM	4.27 µM	18.8 µM	10.2 µM	5.32 µM	4.96 µM	3.8 µM	16.9 µM	> 100 µM	28.3 µM	–	–	–	–	–	–	–	–	–	–
CCN1C(=O)/C(=C/c2c(Cl)[nH]c3cc(C)c(OC)cc23)c2ccccc21	> 100 µM	> 100 µM	30.8 µM	54.1 µM	> 100 µM	> 100 µM	83.1 µM	48.2 µM	> 100 µM	> 100 µM	2.84 µM	9.36 µM	5.6 µM	2.43 µM	6.18 µM	0.708 µM	5.51 µM	3.43 µM	2.49 µM	3.67 µM
NCCCNCCS	> 100 µM	> 100 µM	> 100 µM	> 100 µM	> 100 µM	> 100 µM	> 100 µM	> 100 µM	> 100 µM	> 100 µM	–	–	–	–	–	–	–	–	> 100 µM and 37 µM	> 100 µM and 46.3 µM
Cc1ccc(C2=C(c3ccc(C)cc3)C3(c4ccc(C)cc4)C4C(=O)OC(=O)C4C2(c2ccc(C)cc2)S3=O)cc1 (configuration not stated)	> 100 µM	83.3 µM	42.5 µM	45.6 µM	> 100 µM	78.8 µM	87.9 µM	> 100 µM	> 100 µM	> 100 µM	32 µM	15.8 µM	16.4 µM	15.6 µM	38.5 µM	16.2 µM	25.1 µM	20.9 µM	25.9 µM	38.1 µM
Cc1ccc(S(=O)(=O)N=Nc2c(O)[nH]c3cc(O)c(C(=O)O)cc23)cc1	> 100 µM	> 100 µM	> 100 µM	> 100 µM	> 100 µM	> 100 µM	> 100 µM	> 100 µM	> 100 µM	> 100 µM	–	–	–	–	–	–	–	–	–	–
O=NNc1ccc2ccccc2n1	> 100 µM	> 100 µM	> 100 µM	> 100 µM	> 100 µM	> 100 µM	> 100 µM	> 100 µM	> 100 µM	> 100 µM	–	–	–	–	–	–	–	–	–	–
O=C1C(=O)c2ccccc2C(O)=C1C(C1=C(O)c2ccccc2C(=O)C1=O)c1ccc(Cl)cc1	42.2 µM	17 µM	13.1 µM	22.7 µM	59.8 µM	24.1 µM	3.66 µM	41.8 µM	24.7 µM	> 73.7 µM	–	–	–	–	–	–	–	–	–	–
CCN(CC)CCNC(Cc1ccccc1)c1ccc(OCc2ccccc2)cc1 (configuration not stated)	22 µM	21.6 µM	21.7 µM	6.65 µM	22.3 µM	9.74 µM	20.8 µM	22.8 µM	6.74 µM	20 µM	7.74 µM	7.85 µM	8.49 µM	1.92 µM	7.57 µM	3.42 µM	6.68 µM	9.65 µM	2.35 µM	5.53 µM
CC/C=C\C[C@H]1CC=C2C(=O)C=C[C@@H]2CC=CCCCC(=O)O[C@@H](CCCCC)CC=C2C(=O)C=C[C@@H]2CC=CCCCC(=O)O[C@@H](CCCCC)CC=C2C(=O)C=C[C@@H]2CC=CCCCC(=O)O[C@@H](CCCCC)CC=C2C(=O)C=C[C@@H]2CC=CCCCC(=O)O1	> 7.9 µM	> 7.9 µM	3.86 µM	4.99 µM	> 7.9 µM	5.38 µM	6.86 µM	> 7.9 µM	> 7.9 µM	> 7.9 µM	3.59 µM	2.62 µM	1.71 µM	1.91 µM	2.62 µM	2.21 µM	1.99 µM	2.83 µM	1.58 µM	2.54 µM
NC(CSC(c1ccccc1)(c1ccccc1)c1ccccc1)C(=O)NCC(=O)O (configuration not stated)	> 100 µM	> 100 µM	> 100 µM	9.42 µM	> 100 µM	7.93 µM	> 100 µM	> 100 µM	38.2 µM	> 100 µM	8 µM	18.9 µM	8.16 µM	2.65 µM	5.38 µM	2.71 µM	4.05 µM	8.33 µM	3.48 µM	3.59 µM

From PubChem BioAssay (NCI)
